Reference: US11053204B2, “Pyrimidinyloxy benzene derivatives as herbicides” (FMC Corporation, priority 2015, dated 2021)

Columns and labels:
Assay type in all cases: in vivo
[1] = system: barnyardgrass (Echinochloa crus-galli); assay: Test A preemergence, visual injury rating
Outline: (§1)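 Visual 0–100 rating (100 = complete control) taken about 10 d post-treatment relative to untreated checks. Preemergence: directed soil spray on sown loam/sand pots. Postemergence: seedlings 2–10 cm, 1–2 leaf. Non-phytotoxic solvent formulation with surfactant.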

[2] = system: kochia (Kochia scoparia); assay: Test A preemergence, visual injury rating
Outline: as §1

[3] = system: barnyardgrass (Echinochloa crus-galli); assay: Test C postemergence, plant response rating; conditions: for Plant response rating, Barnyardgrass: scale 0 to 100; for Barnyardgrass plant response rating: scale 0 to 100 (0 no effect, 100 complete control)
Outline: (§2)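 Pre-emergence: seeds sown in loam soil–sand blend or silt loam and sprayed with test chemicals in a non-phytotoxic solvent mixture with surfactant. Post-emergence: plants 2 to 18 cm (1- to 4-leaf stage) in peat-based potting medium, same formulation. Greenhouse 13 to 15 d; visual rating 0 (no effect) to 100 (complete control) versus controls.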

[4] = system: blackgrass (Alopecurus myosuroides); assay: Test C postemergence, plant response rating; conditions: for Plant response rating, Blackgrass: scale 0 to 100; for Blackgrass plant response rating: scale 0 to 100 (0 no effect, 100 complete control)
Outline: as §2

[5] = system: chickweed (common chickweed, Stellaria media); assay: Test C postemergence, plant response rating; conditions: for Chickweed plant response rating: scale 0 to 100 (0 no effect, 100 complete control)
Outline: as §2

[6] = system: corn (Zea mays); assay: Test C postemergence, plant response rating; conditions: for Corn plant response rating: scale 0 to 100 (0 no effect, 100 complete control)
Outline: as §2

[7] = system: crabgrass, large (large crabgrass, Digitaria sanguinalis); assay: Test C postemergence, plant response rating; conditions: for Crabgrass, Large plant response rating: scale 0 to 100 (0 no effect, 100 complete control)
Outline: as §2

[8] = system: foxtail, giant (giant foxtail, Setaria faberii); assay: Test C postemergence, plant response rating; conditions: for Foxtail, Giant plant response rating: scale 0 to 100 (0 no effect, 100 complete control)
Outline: as §2

[9] = system: kochia (Kochia scoparia); assay: Test C postemergence, plant response rating; conditions: for Kochia plant response rating: scale 0 to 100 (0 no effect, 100 complete control)
Outline: as §2

[10] = system: lambsquarters (Chenopodium album); assay: Test C postemergence, plant response rating; conditions: for Lambsquarters plant response rating: scale 0 to 100 (0 no effect, 100 complete control)
Outline: as §2

[11] = system: morningglory (Ipomoea coccinea); assay: Test C postemergence, plant response rating; conditions: for Morningglory plant response rating: scale 0 to 100 (0 no effect, 100 complete control)
Outline: as §2

[12] = system: nutsedge, yellow (yellow nutsedge, Cyperus esculentus); assay: Test C postemergence, plant response rating; conditions: for Nutsedge, Yellow plant response rating: scale 0 to 100 (0 no effect, 100 complete control)
Outline: as §2

[13] = system: oat, wild (wild oat Avena fatua); assay: Test C postemergence, plant response rating; conditions: for Oat, Wild plant response rating: scale 0 to 100 (0 no effect, 100 complete control)
Outline: as §2

[14] = system: oilseed rape (Brassica napus); assay: Test C postemergence, plant response rating; conditions: for Oilseed Rape plant response rating: scale 0 to 100 (0 no effect, 100 complete control)
Outline: as §2

[15] = system: ryegrass, Italian (Italian ryegrass, Lolium multiflorum); assay: Test C postemergence, plant response rating; conditions: for Ryegrass, Italian plant response rating: scale 0 to 100 (0 no effect, 100 complete control)
Outline: as §2

[16] = system: soybean (Glycine max); assay: Test C postemergence, plant response rating; conditions: for Soybean plant response rating: scale 0 to 100 (0 no effect, 100 complete control)
Outline: as §2

[17] = system: wheat (winter wheat, Triticum aestivum); assay: Test C postemergence, plant response rating
Outline: as §2

[18] = 31 g ai/ha, 0 to 100 scale, 0 no effect, 100 complete control
[19] = 125 g ai/ha, 0 to 100 scale (0 no effect, 100 complete control)

With `FC(F)(F)CCCCc1c(Cl)cccc1Oc1ncc(Cl)cn1` [Compound 137] the “Plant response rating, Barnyardgrass” value [1, 18] was 0, the “Plant response rating, Barnyardgrass” value [1, 19] was 90 and the “Plant response rating, Kochia” value [2, 18] was 0. For the same compound, the “Plant response rating, Kochia” value [2, 19] was 70, the “Plant response rating, Barnyardgrass” value ([3]; 16 g ai/ha) was 10 and the “Plant response rating, Barnyardgrass” value ([3]; 31 g ai/ha) was 10. The “Barnyardgrass plant response rating” value ([3]; 62 g ai/ha) was 20, the “Barnyardgrass plant response rating” value ([3]; 125 g ai/ha) was 40 and the “Plant response rating, Blackgrass” value ([4]; 16 g ai/ha) was 5. For the same compound, the “Plant response rating, Blackgrass” value ([4]; 31 g ai/ha) was 10, the “Blackgrass plant response rating” value ([4]; 62 g ai/ha) was 15 and the “Blackgrass plant response rating” value ([4]; 125 g ai/ha) was 40. The “Plant response rating, Chickweed” value ([5]; 16 g ai/ha, scale of 0 to 100) was 70, the “Plant response rating, Chickweed” value ([5]; 31 g ai/ha, scale 0 to 100) was 55 and the “Chickweed plant response rating” value ([5]; 62 g ai/ha) was 90. For the same compound, the “Chickweed plant response rating” value ([5]; 125 g ai/ha) was 100, the “Plant response rating, Corn” value ([6]; 16 g ai/ha, scale of 0 to 100) was 10 and the “Plant response rating, Corn” value ([6]; 31 g ai/ha, scale 0 to 100) was 15. For the same compound, the “Corn plant response rating” value ([6]; 62 g ai/ha) was 15, the “Corn plant response rating” value ([6]; 125 g ai/ha) was 25 and the “Plant response rating, Crabgrass, Large” value ([7]; 16 g ai/ha, scale of 0 to 100) was 10. For the same compound, the “Plant response rating, Crabgrass, Large” value ([7]; 31 g ai/ha, scale 0 to 100) was 20, the “Crabgrass, Large plant response rating” value ([7]; 62 g ai/ha) was 40 and the “Crabgrass, Large plant response rating” value ([7]; 125 g ai/ha) was 70. For the same compound, the “Plant response rating, Foxtail, Giant” value ([8]; 16 g ai/ha, scale of 0 to 100) was 20, the “Plant response rating, Foxtail, Giant” value ([8]; 31 g ai/ha, scale 0 to 100) was 20 and the “Foxtail, Giant plant response rating” value ([8]; 62 g ai/ha) was 40. The “Foxtail, Giant plant response rating” value ([8]; 125 g ai/ha) was 35, the “Plant response rating, Kochia” value ([9]; 16 g ai/ha, scale of 0 to 100) was 85 and the “Plant response rating, Kochia” value ([9]; 31 g ai/ha, scale 0 to 100) was 90. For the same compound, the “Kochia plant response rating” value ([9]; 62 g ai/ha) was 98, the “Kochia plant response rating” value ([9]; 125 g ai/ha) was 98 and the “Plant response rating, Lambsquarters” value ([10]; 16 g ai/ha, scale of 0 to 100) was 55. The “Plant response rating, Lambsquarters” value ([10]; 31 g ai/ha, scale 0 to 100) was 75, the “Lambsquarters plant response rating” value ([10]; 62 g ai/ha) was 85 and the “Lambsquarters plant response rating” value ([10]; 125 g ai/ha) was 90. For the same compound, the “Plant response rating, Morningglory” value ([11]; 16 g ai/ha, scale of 0 to 100) was 10, the “Plant response rating, Morningglory” value ([11]; 31 g ai/ha, scale 0 to 100) was 15 and the “Morningglory plant response rating” value ([11]; 62 g ai/ha) was 20. The “Morningglory plant response rating” value ([11]; 125 g ai/ha) was 20, the “Plant response rating, Nutsedge, Yellow” value ([12]; 16 g ai/ha, scale of 0 to 100) was 0 and the “Plant response rating, Nutsedge, Yellow” value ([12]; 31 g ai/ha, scale 0 to 100) was 0. The “Nutsedge, Yellow plant response rating” value ([12]; 62 g ai/ha) was 10, the “Nutsedge, Yellow plant response rating” value ([12]; 125 g ai/ha) was 5 and the “Plant response rating, Oat, Wild” value ([13]; 16 g ai/ha, scale of 0 to 100) was 5. The “Plant response rating, Oat, Wild” value ([13]; 31 g ai/ha, scale 0 to 100) was 10, the “Oat, Wild plant response rating” value ([13]; 62 g ai/ha) was 10 and the “Oat, Wild plant response rating” value ([13]; 125 g ai/ha) was 10. The “Plant response rating, Oilseed Rape” value ([14]; 16 g ai/ha, scale of 0 to 100) was 90, the “Plant response rating, Oilseed Rape” value ([14]; 31 g ai/ha, scale 0 to 100) was 95 and the “Oilseed Rape plant response rating” value ([14]; 62 g ai/ha) was 90. The “Oilseed Rape plant response rating” value ([14]; 125 g ai/ha) was 100, the “Plant response rating, Ryegrass, Italian” value ([15]; 16 g ai/ha, scale of 0 to 100) was 5 and the “Plant response rating, Ryegrass, Italian” value ([15]; 31 g ai/ha, scale 0 to 100) was 5. The “Ryegrass, Italian plant response rating” value ([15]; 62 g ai/ha) was 5, the “Ryegrass, Italian plant response rating” value ([15]; 125 g ai/ha) was 10 and the “Plant response rating, Soybean” value ([16]; 16 g ai/ha, scale of 0 to 100) was 20. The “Plant response rating, Soybean” value ([16]; 31 g ai/ha, scale 0 to 100) was 30, the “Soybean plant response rating” value ([16]; 62 g ai/ha) was 45 and the “Soybean plant response rating” value ([16]; 125 g ai/ha) was 40. The “Plant response rating, Wheat” value ([17]; 16 g ai/ha, scale of 0 to 100) was 5, the “Plant response rating, Wheat” value ([17]; 31 g ai/ha, scale 0 to 100) was 5 and the “Wheat plant response rating” value ([17]; 125 g ai/ha, scale 0 to 100 (0 no effect, 100 complete control)) was 20.
